The values that follow come from patent US20130331368A1, “METHOD OF TREATING HEPATOCELLULAR CARCINOMA” (Niiki Pharma Acquisition Corp. 2, priority 2011, published 2013).

≈ marks a conversion by molar mass, not a printed value. Read-outs that look alike come from different tables or passages of the source.

One series concerns HCC3. The series can be described thus: MTT cytotoxicity assay, HCC3 cell line. The series is classed as cell-based, human. The conditions noted are these: for IC50: HCC3, MTT at 72 h; for IC50 Ratio (HCC3/B1): IC50 in HCC3 divided by IC50 in B1. As for the experimental part: (§1) To test the activities of sodium trans-[tetrachlorobis(1H-indazole)ruthenate(III)] (“drug”), MTT assays were performed using selected hepatocellular carcinoma cell lines. Cells were plated (2×10^3 cells in 100 μl/well) in 96-well plates and allowed to recover for 24 hours. The drug was added in another 100 μl growth medium and incubated with cultured cells for 3 hours before the cell culture medium was replaced to remove the drug. Cell death was measured 72 hours after the initial incubation by MTT assay following the manufacturer's recommendations (EZ4U, Biomedica, Vienna, Austria).
(§2) In addition, the IC50 values of 5-FU and cisplatin in the Hep3B and HepG2 cell lines were obtained from Kogure et al., Cancer Chemother. Pharmacol., 53(4):296-304 (2004). The ratios of IC50 values of sodium trans-[tetrachlorobis(1H-indazole)ruthenate(III)] in a cell line sensitive to one of the other drugs and a cell line insensitive to the same drug were calculated.

A further series concerns hepatocellular carcinoma. The conditions noted are these: late stage HCC patients with well preserved liver function; cited from earlier work.
A further series deals with B1. Description: MTT cytotoxicity assay, B1 cell line. The series is classed as cell-based, human. On the procedure: as §1, §2
In series [1] the test system is Hep3B cells. To be noted: for increase in life span: versus control group (33 days). As for the experimental part:
Separately, the activity of sodium trans-[tetrachlorobis(1H-indazole)ruthenate(III)] against Hep3B cells was evaluated in xenograft experiments using female SCID mice as compared to the standard therapy sorafenib. Sodium trans-[tetrachlorobis(1H-indazole)ruthenate(III)] was administered IV at 30 mg/kg once a week for two weeks. Sorafenib was administered P.O. at 25 mg/kg daily five times a week for two weeks.

The test system of the next series is HCC2. The series can be described thus: MTT cytotoxicity assay, HCC2 cell line. To be noted: for IC50: HCC2, MTT; for IC50 Ratio (HCC2/HCC3): IC50 in HCC2 divided by IC50 in HCC3. The series is classed as cell-based, human. As for the experimental part: as §1, §2
On the technique in general: Formazan colour is commonly taken as a measure of viable cells.

Series [2] concerns Hep3B. To be noted: from Kogure et al. 2004; cited from earlier work.
The subject of series [3] is HepG2. To be noted: from Kogure et al. 2004; cited from earlier work.
Series [4] has as its system HepG2. Description: Literature IC50 in HepG2 (Kogure et al.). The series is classed as cell-based, human. The conditions noted are these: ratio of literature IC50 values (Kogure et al.). As for the experimental part:
In addition, the IC50 values of 5-FU and cisplatin in the Hep3B and HepG2 cell lines were obtained from Kogure et al., Cancer Chemother. Pharmacol., 53(4):296-304 (2004). The ratios of IC50 values of sodium trans-[tetrachlorobis(1H-indazole)ruthenate(III)] in a cell line sensitive to one of the other drugs and a cell line insensitive to the same drug were calculated. The results are shown in Tables 1-5 below (“Test Drug” in the tables denotes sodium trans-[tetrachlorobis(1H-indazole)ruthenate(III)]). […] As such, sodium trans-[tetrachlorobis(1H-indazole)ruthenate(III)] is potentially effective in treating hepatocellular carcinoma resistant to such other drugs.

The subject of series [5] is Hep3B. The series can be described thus: MTT cytotoxicity assay, Hep3B cell line. The series is classed as cell-based, human. On the procedure:
as §1, §2

Series [6] relates to HepG2. The series can be described thus: MTT cytotoxicity assay, HepG2 cell line. The series is classed as cell-based, human. To be noted: for IC50: HepG2; for IC50 Ratio (HepG2/Hep3B): IC50 in HepG2 divided by IC50 in Hep3B. On the procedure: as §1, §2
Series [7] relates to Hep3B cells. Description: Apoptosis induction, DAPI staining of nuclear morphology. The series is classed as cell-based, human. To be noted: 24 hours of drug treatment. As for the experimental part:
To evaluate the mechanisms underlying the drug activity, apoptosis induction as well as impact on cell cycle distribution and proliferation of Hep3B cells were evaluated (FIG. 2). Specifically, the hepatoma cell line Hep3B was purchased from American Type Culture Collection (ATCC), Manassas, Va. All cells were grown in RPMI 1640 supplemented with 10% FCS. Cultures were regularly checked for Mycoplasma contamination. After 24 hours of drug treatment, cells were harvested, washed in PBS and cytospins were prepared. After fixation with a 1:1 methanol/acetone solution, slides were stained with 4′,6-diamidino-2-phenylindole (DAPI) containing antifade solution (Vector Laboratories, Inc., USA). Nuclear morphology of cells was examined using a Laica DMRXA fluorescence microscope (Laica Mikroskopie and System, Wetzlar, Germany) equipped with appropriate epifluorescence filters and a COHU charge-douples device camera. Duplicate slides were prepared for each cell type/treatment group and 300-500 cells were counted for each sample.
Treatment with sodium trans-[tetrachlorobis(1H-indazole)ruthenate(III)] led to typical morphological signs of programmed cell death like cell shrinkage, chromatin condensation and formation of apoptotic bodies. […]

The test system of the next series is PARP. Description: PARP cleavage by Western blot. The series is classed as cell-based, human. The conditions noted are these: 24 hours of drug treatment. On the procedure:
Treatment with sodium trans-[tetrachlorobis(1H-indazole)ruthenate(III)] led to typical morphological signs of programmed cell death like cell shrinkage, chromatin condensation and formation of apoptotic bodies. Apoptotic cell death induced by sodium trans-[tetrachlorobis(1H-indazole)ruthenate(III)] was further characterized by PARP cleavage examined by Western Blot Analyses. Specifically, after 24 hours of drug treatment, protein extracts were prepared and Western blot analyses performed. Rabbit Anti-PARP from Apoptosis Sampler kit (Cell Signaling Technology, Beverly, Mass.) (dilution 1:1000)[…]) was used. For loading control β-actin monoclonal mouse AC-15 (Sigma, USA, dilution: 1:1000) was used. All secondary peroxidase-labeled antibodies were purchased from Santa Cruz Biotechnology and used at working dilution of 1:10000.
For orientation: A western blot detects proteins with antibodies after separation by electrophoresis.

Series [8] has as its system Hep3B cells. The series can be described thus: DNA synthesis rate by 3H-thymidine incorporation. The series is classed as cell-based, human. For orientation: Dividing cells build labelled thymidine or BrdU into new DNA.
The test system of series [9] is colon cancer cell line HT29. To be noted: Kapitza et al. 2005; cited from earlier work.
Series [10] deals with Hep3B cells. Description: Cell cycle distribution, PI staining and FACS. The series is classed as cell-based, human. The conditions noted are these: 24 hours of treatment, PI staining, FACS.
For series [11], the system named is hepatocellular carcinoma cell lines. The series can be described thus: MTT cytotoxicity assay, mean over selected hepatocellular carcinoma cell lines. The series is classed as cell-based, human. The conditions noted are these: mean over tested HCC cell lines, after 72 hours. On the procedure:
as §1

The subject of another series is HCC1.2. The series can be described thus: MTT cytotoxicity assay, HCC1.2 cell line. The series is classed as cell-based, human. The conditions noted are these: 3 h drug incubation, MTT at 72 h. On the procedure:
as §1

The test system of series [12] is Hep3B cells. The series can be described thus: Mitochondrial membrane depolarization, JC-1 staining and FACS. The series is classed as cell-based, human.
Series [13] has as its system colon cancer cell line SW480. To be noted: Kapitza et al. 2005; cited from earlier work.
The subject of series [14] is stress kinase P38 and extracellular signal-regulated kinase (ERK). Description: Phosphorylation of P38 and ERK. The series is classed as cell-based, human. To be noted: 24 hours of treatment.
Setting [15] is: Hep3B xenograft, female SCID mice.

On to `CNC(=O)c1cc(Oc2ccc(NC(=O)Nc3ccc(Cl)c(C(F)(F)F)c3)cc2)ccn1` [Sorafenib, sorafenib, reference compound], for which the IC50 with HCC3 (Homo sapiens) is more than 10 µM; in the series with B1 (Homo sapiens) it was 0.8 µM. Also, the “IC50 Ratio (HCC3/B1)” value with HCC3 is listed as more than 12.5. Moreover, the added lifespan entry in the series on hepatocellular carcinoma is “two”. The compound further yielded a mean survival in the series with Hep3B cells [1] (setting [15]) of 60 days. Also, in the series with Hep3B cells [1] (Hep3B xenograft), the “increase in life span” value was 1.9 fold.

The compound `O=C1[O][Pt]2([NH][C@@H]3CCCC[C@H]3[NH]2)[O]C1=O` [Oxaliplatin, oxaliplatin, reference compound] returned a concentration for half-maximal inhibition (IC50) with HCC3 of 0.41 µM. In addition, in the series on HCC2, it took 4.05 µM to reach half-maximal inhibition (IC50) and the “IC50 Ratio (HCC2/HCC3)” value is reported as more than 9.9.

For `O=c1[nH]cc(F)c(=O)[nH]1` [5-FU], the half-inhibitory concentration (IC50) in the series on Hep3B [2] is 227 µg/mL (≈ 1750 µM); in the series on HepG2 [3], 17.2 µg/mL (≈ 132 µM). The “IC50 Ratio (HepG2/Hep3B)” value with HepG2 [4] is more than 5.2.

Regarding `N.N.[Cl][Pt][Cl]` [Cisplatin, cisplatin], the half-maximal inhibitory concentration (IC50) in the series on Hep3B [2] is 3.75 µg/mL; in the series on HepG2 [3], 19.4 µg/mL. Also, the “IC50 Ratio (HepG2/Hep3B)” value in the series on HepG2 [4] is more than 5.2.

As to `COc1cccc2c1C(=O)c1c(O)c3c(c(O)c1C2=O)C[C@@](O)(C(=O)CO)C[C@@H]3O[C@H]1C[C@H](N)[C@H](O)[C@H](C)O1` [Doxorubicin, doxorubicin, reference compound], the IC50 in the series on Hep3B [5] (Homo sapiens) was 0.0693 µM; with HepG2 [6] (Homo sapiens), more than 0.25 µM. In addition, in the series with HepG2 [6], the “IC50 Ratio (HepG2/Hep3B)” value is listed as more than 3.6.

As to `[Cl][Ru-]([Cl])([Cl])[Cl].[Na+].c1ccc2[nH]ncc2c1.c1ccc2[nH]ncc2c1` [sodium trans-[tetrachlorobis(1H-indazole)ruthenate(III)]], the apoptosis induction entry in the series on Hep3B cells [7] was “significant apoptosis”. In addition, the PARP cleavage entry with PARP is given as “PARP cleavage induced”. Besides, the DNA synthesis rate entry in the series with Hep3B cells [8] is on record as “significantly reduce DNA synthesis rate”. In addition, the half-inhibitory concentration (IC50) in the series with HCC3 was found to be 67.5 µM; with B1 it was 83.4 µM; in series [11], 124 µM; in the series on HCC1.2 it was 62.9 µM; in the series on Hep3B [5] (MTT) it was 167 µM; with HepG2 [6] (MTT), 189 µM. The compound further displayed an IC50 in the series with HCC2 of 129 µM. Also, the “IC50 Ratio (HCC3/B1)” value in the series on HCC3 amounted to 0.8. Further, the “killing of tumor cells” value in [9] and in [13] was “effective in killing tumor cells” throughout. Besides, the cell cycle distribution result in the series on Hep3B cells [10] is “increase of cells in G2/M phase”. Besides, in the series with Hep3B cells [1] (setting [15]), the mean survival is 80 days. Further, in the series on Hep3B cells [1] (Hep3B xenograft, female SCID mice, IV 30 mg/kg once a week for two weeks), the tumor growth result is “effectively suppressed the growth of tumor”. Also, the “increase in life span” value in the series on Hep3B cells [1] (Hep3B xenograft) is reported as 2.4 fold. For the same compound, in the series with Hep3B cells [1] (female SCID mice, IV 30 mg/kg once a week for two weeks), the tolerability entry is “well tolerated”. For the same compound, the “cells with mitochondrial membrane depolarization” value in the series on Hep3B cells [12] was “increase of cells with mitochondrial membrane depolarization”. The “IC50 Ratio (HepG2/Hep3B)” value in the series with HepG2 [6] is listed as 1.1. Moreover, in the series on HCC2, the “IC50 Ratio (HCC2/HCC3)” value came to 1.9. Further, the “phosphorylation of P38 and ERK” value in series [14] is reported as “strong phosphorylation”.

By IC50 is commonly meant the concentration that gives 50% inhibition.
